# Assay results from PubChem BioAssay AID1996.
# Details: buffer; pH 7.4; 200.0 µM
row,Structure (SMILES),solubility kinetic
1,COc1ccc(C(=O)C(C)OC(=O)CNC(=O)C2CCCCC2)cc1 (configuration not stated),> 52.1 µg/mL
2,CCOC(=O)CSc1nc2cccnc2n1C,> 37.7 µg/mL
3,COc1cc(N2Cc3ccccc3C2)ccc1C=O,1.8 µg/mL
4,Cc1ccccc1NCCC(=O)Nc1ccc(F)cc1,> 40.8 µg/mL
5,Cc1ccc(S(=O)(=O)N(C)C(C)CCc2ccco2)cc1 (configuration not stated),26.2 µg/mL
6,COc1ccc(C(=O)COC(=O)c2sc(C)nc2C)cc1F,36.5 µg/mL
7,O=C1CN(C(=O)/C=C/c2cc(Br)ccc2F)CCN1,> 49.1 µg/mL
8,O=C(COC(=O)/C=C/c1cccs1)NC1CCCCC1,9.4 µg/mL
9,N#Cc1ccc(S(=O)(=O)Nc2ccc3ccccc3n2)cc1,27 µg/mL
10,COc1ccc(Nc2nc3ccccc3c(=O)[nH]2)cc1,24.4 µg/mL
11,CCOc1ccc(N/C=C/C(=O)c2ccccc2)cc1,0.8 µg/mL
12,CC(C)N(Cc1ccccc1)C(=O)COC(=O)c1cnc(Cl)c(Cl)c1,33.9 µg/mL
13,CCNC(=O)c1ccc(CSc2nc3ccccc3s2)cc1,6.7 µg/mL
14,CC(C)(C)C(=O)CSc1nc(N)cc(=O)[nH]1,33.1 µg/mL
15,N/C(Cc1nc2ccccc2s1)=N\O,29.3 µg/mL
16,CN(C)C(CNC(=O)c1cccc(C#N)c1)c1ccco1 (configuration not stated),39.3 µg/mL
17,Cc1nc(C(=O)NCC(=O)c2ccc(Cl)cc2)c(C(F)(F)F)o1,8.4 µg/mL
18,Br.C=CCN1CCc2cccc3c2[C@H]1Cc1ccc(O)c(O)c1-3,27.9 µg/mL
19,Cc1nc(SCC(=O)N2CCOCC2)c2c(=O)n(C)c(=O)n(CC(C)C)c2n1,47.8 µg/mL
20,Oc1ccc(Nc2nc(-c3cccnc3)cs2)cc1,0.8 µg/mL
21,COc1ccc(S(=O)(=O)NC2CCc3ccccc32)cc1OC (configuration not stated),> 50 µg/mL
22,CCC(CO)N=CC1=C(O)CC(c2ccccc2)CC1=O (configuration not stated),> 43.1 µg/mL
23,O=[N+]([O-])c1cccc(S(=O)(=O)NCCc2cn3ccccc3n2)c1,48.5 µg/mL
24,CN1CCC(C)(O)C2CCCCC21 (configuration not stated),> 27.5 µg/mL
25,O=[N+]([O-])c1ccc(CSc2ccccn2)cc1,15.2 µg/mL

row,Structure (SMILES),solubility kinetic
1,O=C(NCCCNC(=O)c1ccc(F)cc1)c1ccc(F)cc1,30.9 µg/mL
2,COc1ccccc1OC(=O)Nc1ccc(Cl)cc1,17.8 µg/mL
3,Cc1ccc(NC(=O)CSc2nc3sc(C)cc3c(=O)n2C)cc1,< 0.3 µg/mL
4,Cc1ccc(C(=O)N/C(=C\c2cccs2)C(=O)N2CCOCC2)cc1C,> 55.6 µg/mL
5,CSc1nc2ccc(NC(=O)c3ccccn3)cc2s1,0.5 µg/mL
6,COCCNC(=O)c1ccccc1NC(=O)CSc1ccc(C)cc1,36.6 µg/mL
7,CCC(C)n1c(O)c(C=NCC2CCCO2)c(=O)[nH]c1=S (configuration not stated),38.3 µg/mL
8,COc1cc(C)c(Cl)cc1S(=O)(=O)N1CCSC1,33 µg/mL
9,NC(=S)Nc1ccc(F)c(F)c1F,> 30.9 µg/mL
10,CSc1cccc(NC(N)=O)c1,25.1 µg/mL
11,CC1=C(C(=O)OC2CCCCC2)C(c2ccc(O)cc2)NC(=O)N1 (configuration not stated),> 49.6 µg/mL
12,COc1ccccc1NS(=O)(=O)c1cc(NC(=O)c2cccnc2)ccc1N1CCCCC1,1.3 µg/mL
13,COc1ccc(-n2c(-c3ccc(Cl)cc3)c[nH]c2=S)cc1,1.5 µg/mL
14,O=C(O)C1(Cc2nc3ccccc3[nH]2)CCCC1,26.8 µg/mL
15,O=C(Nc1ccccc1)c1cccc2c(Br)cccc12,< 0.7 µg/mL
16,COc1cc(CC(=O)OCC(=O)NCc2cccs2)cc(OC)c1OC,> 56.9 µg/mL
17,Cc1nc2ccc(Cl)cc2nc1C,9.4 µg/mL
18,O=C1CN(C(=O)COC(=O)c2ccc(C(F)(F)F)cc2)c2ccccc2N1,2.4 µg/mL
19,Cc1ccc(O)c(Nc2ncnc3ccc([N+](=O)[O-])cc23)c1.Cl,9.6 µg/mL
20,S=c1[nH]c2ccc(Cc3ccc4[nH]c(=S)[nH]c4c3)cc2[nH]1,1.7 µg/mL
21,O=c1c2ccccc2nc(/C=C/c2cccnc2)n1CCc1ccccc1,22.1 µg/mL
22,Cc1ccc(N2C(=O)N(CC(=O)Nc3ccc([N+](=O)[O-])cc3)C(=O)C2C)cc1 (configuration not stated),6 µg/mL
23,O=C(Oc1ccccc1N1CCOCC1)c1ccccc1,26.3 µg/mL
24,O=C(Nc1nccs1)C1(c2ccc(Cl)cc2)CC1,14.2 µg/mL
25,O=C(O)c1ccccc1NCc1cccnc1,> 34.2 µg/mL

row,Structure (SMILES),solubility kinetic
1,O=C(Nc1cccnc1Cl)c1cc(-c2ccc(O)cc2)on1,< 0.2 µg/mL
2,CC(=O)N1CCN=C1SCc1cccc(F)c1,36.5 µg/mL
3,CCCc1cc(=O)oc2c(CN(CC)CC)c(O)c(Cl)cc12,> 48.6 µg/mL
4,O=C(Nc1ccc(NC(=O)c2ccccc2F)cn1)c1ccco1,8.4 µg/mL
5,O=C1C(Cl)=C(N2CCOCC2)C(=O)N1c1ccccc1F,38.7 µg/mL
6,COc1ccc(C2(C(=O)NCCc3ccccc3)CCCC2)cc1,31.1 µg/mL
7,CN1CCN(CC(=O)Nc2nc3ccccc3s2)CC1.O=CO,50.4 µg/mL
8,Cc1ccc(-c2ccc(S(=O)(=O)N3CC(C)OC(C)C3)cc2)cc1 (configuration not stated),< 0.7 µg/mL
9,O=C(NCCCn1ccnc1)c1ccc(Cl)c(Cl)c1,> 44.7 µg/mL
10,COc1ccc2c(CC(=O)Nc3nccs3)coc2c1,7 µg/mL
11,C=C(C)CNC(=S)Nc1cccc(N)n1,> 33.3 µg/mL
12,O=Cc1c(NCc2ccco2)nc2ccccn2c1=O,19.5 µg/mL
13,S=c1[nH]c2ccccc2[nH]1,> 22.5 µg/mL
14,O=C(/C=C\c1ccco1)NC(=S)Nc1ccccc1O,42.6 µg/mL
15,CC(=O)NC(CC(=O)NCCOc1ccccc1F)c1ccccc1 (configuration not stated),> 51.7 µg/mL
16,COc1ccccc1NC(=O)c1cc(Cl)nnc1Cl,> 44.7 µg/mL
17,Cc1ccsc1C(=O)C1CCCN(Cc2cnc(N)nc2)C1 (configuration not stated),37.8 µg/mL
18,O=C(c1cc(S(=O)(=O)N2CCOCC2)ccc1Cl)N1CCCCC1CO (configuration not stated),> 60.4 µg/mL
19,Nc1nc(COc2ccc(F)cc2Cl)nc(N2CCCCC2)n1,3.4 µg/mL
20,COc1ccccc1CC(=O)Nc1cccc(C)n1,> 38.4 µg/mL
21,CC1CN(S(=O)(=O)c2ccc(C(=O)Nc3ccccc3F)cc2)CC(C)O1 (configuration not stated),> 58.9 µg/mL
22,CN1C2CCC1CC(OC(c1ccccc1)c1ccccc1N)C2 (configuration not stated),> 48.4 µg/mL
23,COc1ccccc1NC(=O)C(C)OC(=O)CC1CCCC1 (configuration not stated),29.4 µg/mL
24,Cc1noc(C)c1COc1ccc(C(=O)NCc2cccs2)cc1,16.5 µg/mL
25,COc1ccc(Cc2nc3ccccc3[nH]2)cc1OC,> 40.2 µg/mL

row,Structure (SMILES),solubility kinetic
1,O=C(Cc1ccccc1)NCCc1c[nH]c2ccccc12.O=C(O)C(=O)O,47.8 µg/mL
2,Nc1nnc(SCC(=O)NC2CCCCCC2)s1,> 43 µg/mL
3,O=C(COC(=O)c1nc(Cl)ccc1Cl)c1ccc[nH]1,31.3 µg/mL
4,Cc1ccc(NC(=O)N(CCC(=O)O)Cc2ccccc2)cc1,> 46.9 µg/mL
5,CC(=O)c1sc(Nc2nc3cc4c(cc3s2)OCO4)nc1C,0.6 µg/mL
6,Cc1ccccc1C(=O)Nc1scc(-c2ccc(Br)cc2)c1C(=O)O,3.5 µg/mL
7,Cc1c(/C=C(\CC(=O)O)c2nc3ccccc3s2)cc(C#N)n1C,44.6 µg/mL
8,Cc1ccccc1NC(=O)Nc1ccc2c(c1)OCO2,0.5 µg/mL
9,Cc1ccc(C(C)NC(=O)c2cc3ccccc3oc2=O)cc1C (configuration not stated),0.8 µg/mL
10,CSCCC(NC(=O)COc1ccccc1)C(=O)NCc1cccs1 (configuration not stated),> 56.8 µg/mL
11,Cc1ccccc1NC(=O)Nc1cnccn1,12.4 µg/mL
12,CC(C)(C)NC(=O)/C=C/c1cccs1,> 31.4 µg/mL
13,Cc1cc(C)cc(NC(=O)COC(=O)CC2CCCC2)c1,21.1 µg/mL
14,CC1CCN(C(=O)/C(=C\c2ccccc2)NC(=O)c2ccccc2)CC1,52.2 µg/mL
15,O=C(CCCc1ccccc1)NCCc1ccccc1,29.3 µg/mL
16,COC(=O)[C@H](C)NC(=O)N1CCC(Cc2ccccc2)CC1,> 45.7 µg/mL
17,Nc1ccccc1SCC(=O)Nc1nccs1,> 39.8 µg/mL
18,C[N+]1(C)C2CCC1CC(OC(=O)c1ccco1)C2.[Br-] (configuration not stated),48.5 µg/mL
19,CCOC(=O)C1=CCN(Cc2ccccc2)CC1.Cl,37.8 µg/mL
20,O=C(CN1CCCC1)NC(=O)NC1CCCC1,> 35.9 µg/mL
21,O=C(O)c1cc(-c2cccc([N+](=O)[O-])c2)nc2ccccc12,> 44.1 µg/mL
22,COc1ccc(-c2cn(-c3ccc(C)cc3C)c(=S)[nH]2)cc1OC,16.8 µg/mL
23,ONC(=Nc1cccc(C(F)(F)F)c1)c1cccnc1,> 42.2 µg/mL
24,COc1ccccc1C(=O)C1CCCN(Cc2cnc(C)s2)C1 (configuration not stated),> 49.6 µg/mL
25,S=C(NCCc1ccc(Cl)cc1)NCc1ccccc1,16.7 µg/mL

row,Structure (SMILES),solubility kinetic
1,O=C(CN1CCCCCCC1)Nc1cccc(Cl)c1Cl,< 0.3 µg/mL
2,CCn1c(NC(=O)/C=C/c2ccc(F)cc2)nc2ccccc21,3.5 µg/mL
3,COc1ccc(NC(=O)c2cc(C)nc3ccccc23)cc1S(=O)(=O)N1CCOCC1,6.1 µg/mL
4,COc1ccc(C)cc1CN1C(=O)c2ccccc2C1=O,4 µg/mL
5,Cc1ncc([N+](=O)[O-])n1CCN1C(=O)c2ccccc2C1=O,44.3 µg/mL
6,O=C1N(c2ccccc2)C(=Nc2ccccc2)SC12CC2,41.5 µg/mL
7,O=C(CS(=O)(=O)c1ccccc1)Nc1nc2ccccc2s1,> 49.9 µg/mL
8,CN(CCc1cnn(C)c1)Cc1cn(C)nc1-c1ccccc1F,> 49.1 µg/mL
9,NS(=O)(=O)c1cccc(NC(=O)CCCC2CCCCC2)c1,8.8 µg/mL
10,CCCN1CCC(NC(=O)C2CCN(C(C)=O)CC2)CC1,> 44.3 µg/mL
11,NC(=O)CN(Cc1ccccc1)S(=O)(=O)c1ccc2c(c1)OCCO2,> 54.4 µg/mL
12,COc1ccc(NC(=O)CN(c2ccccc2OC)S(=O)(=O)c2cccs2)cc1Cl,2.9 µg/mL
13,CSc1nc2nc(-c3cccs3)cc(C(F)(F)F)c2c(=O)[nH]1,2.5 µg/mL
14,Cc1ccc(OCC(=O)NCCCNC(=O)c2ccccn2)cc1C,45.4 µg/mL
15,CCC(=Nc1ccccc1)C1=C(O)CCCC1=O,19.9 µg/mL
16,Cn1c(-c2ccccc2)cnc1NCc1cc(Cl)ccc1O,1.2 µg/mL
17,COC(=O)c1nc(-c2ccccc2)oc1N1CCOCC1,> 43.2 µg/mL
18,COc1ccc(C)cc1NC(=O)CN1C(=O)COc2ccc(C)cc21,2.1 µg/mL
19,CCN(c1ccccc1)S(=O)(=O)c1cc(NC(=O)CN2CCN(C)CC2)ccc1Cl.O=C(O)C(=O)O,> 81.2 µg/mL
20,Cc1nc(C)c(C(=O)Nc2cccc(C)c2C)s1,> 39.1 µg/mL
21,C[N+]1(CCOC(=O)C2(c3ccccc3)CCCC2)CCCCC1,> 47.5 µg/mL
22,O=C(c1ccc2c(c1)OCO2)N1CCC(Cc2ccccc2)CC1,41.6 µg/mL
